# Source: PMC10150366, “Discovery of an In Vivo Chemical Probe for BCL6 Inhibition by Optimization of Tricyclic Quinolinones” (Journal of Medicinal Chemistry, 2023)
# pEC50, pIC50: −log10 of the molar value.
# How the values were obtained:
# [1] = target: CNR1 (Homo sapiens, UniProt P21554); assay: SAFETYscan cAMP CNR1 Antagonist; type: cell-based
# Text: (§1) Supplement jm3c00155_si_002.xlsx, sheet "SAFETYScan" | column: RC50 (uM); Max Response
# [2] = target: T1, CHRM2 (Homo sapiens, UniProt P08172); assay: SAFETYscan cAMP CHRM2 Antagonist; type: cell-based
# T1 sequence (P08172 1-466): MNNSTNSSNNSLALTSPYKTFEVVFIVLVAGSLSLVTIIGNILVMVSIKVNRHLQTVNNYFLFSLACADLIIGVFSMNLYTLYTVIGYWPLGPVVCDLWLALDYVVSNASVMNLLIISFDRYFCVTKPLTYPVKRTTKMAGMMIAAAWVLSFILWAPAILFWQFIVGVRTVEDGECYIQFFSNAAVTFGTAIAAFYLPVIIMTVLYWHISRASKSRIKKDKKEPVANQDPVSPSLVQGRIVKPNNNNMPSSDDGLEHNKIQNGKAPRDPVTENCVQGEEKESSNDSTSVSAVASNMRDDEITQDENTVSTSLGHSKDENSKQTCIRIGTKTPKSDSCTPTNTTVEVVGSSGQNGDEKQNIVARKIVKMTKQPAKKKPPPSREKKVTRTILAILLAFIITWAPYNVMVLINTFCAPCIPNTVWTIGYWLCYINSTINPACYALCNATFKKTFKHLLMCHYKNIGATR
# Text: as §1
# [3] = target: T2, CCKAR (Homo sapiens, UniProt P32238); assay: SAFETYscan Calcium Flux CCKAR Antagonist; type: cell-based
# T2 sequence (P32238 1-428): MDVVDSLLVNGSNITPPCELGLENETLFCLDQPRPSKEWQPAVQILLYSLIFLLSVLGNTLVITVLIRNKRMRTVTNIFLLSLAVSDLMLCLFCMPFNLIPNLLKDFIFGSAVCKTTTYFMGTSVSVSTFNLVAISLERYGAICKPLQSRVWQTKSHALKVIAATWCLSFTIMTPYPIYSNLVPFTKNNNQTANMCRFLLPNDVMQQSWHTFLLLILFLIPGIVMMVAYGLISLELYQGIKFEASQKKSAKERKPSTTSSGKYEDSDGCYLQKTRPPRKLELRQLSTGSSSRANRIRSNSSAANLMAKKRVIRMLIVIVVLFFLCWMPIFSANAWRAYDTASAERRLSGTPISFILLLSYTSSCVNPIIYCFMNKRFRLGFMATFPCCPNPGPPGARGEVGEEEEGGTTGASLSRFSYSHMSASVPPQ
# Text: as §1
# [4] = target: NAV1.5 (Homo sapiens, UniProt Q14524); assay: SAFETYscan Ion Channel NAV1.5 Blocker; type: cell-based
# Text: as §1
# [5] = target: T3, HTR1A (Homo sapiens, UniProt P08908); assay: SAFETYscan cAMP HTR1A Antagonist; type: cell-based
# T3 sequence (P08908 1-422): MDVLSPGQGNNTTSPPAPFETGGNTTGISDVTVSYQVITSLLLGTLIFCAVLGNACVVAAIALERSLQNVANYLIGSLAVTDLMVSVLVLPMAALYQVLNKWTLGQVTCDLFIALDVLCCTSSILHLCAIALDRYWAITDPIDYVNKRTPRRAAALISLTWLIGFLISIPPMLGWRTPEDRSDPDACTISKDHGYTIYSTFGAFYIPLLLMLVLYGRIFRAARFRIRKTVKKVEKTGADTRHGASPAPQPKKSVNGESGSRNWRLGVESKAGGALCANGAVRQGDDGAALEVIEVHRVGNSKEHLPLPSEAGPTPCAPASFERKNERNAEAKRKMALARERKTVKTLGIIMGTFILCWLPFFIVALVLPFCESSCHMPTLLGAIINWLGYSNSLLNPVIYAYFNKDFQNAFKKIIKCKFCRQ
# Text: as §1
# [6] = target: LCK (Homo sapiens, UniProt P06239); assay: SAFETYscan Kinases Binding LCK Inhibitor
# Chain of LCK (P06239 whole entry): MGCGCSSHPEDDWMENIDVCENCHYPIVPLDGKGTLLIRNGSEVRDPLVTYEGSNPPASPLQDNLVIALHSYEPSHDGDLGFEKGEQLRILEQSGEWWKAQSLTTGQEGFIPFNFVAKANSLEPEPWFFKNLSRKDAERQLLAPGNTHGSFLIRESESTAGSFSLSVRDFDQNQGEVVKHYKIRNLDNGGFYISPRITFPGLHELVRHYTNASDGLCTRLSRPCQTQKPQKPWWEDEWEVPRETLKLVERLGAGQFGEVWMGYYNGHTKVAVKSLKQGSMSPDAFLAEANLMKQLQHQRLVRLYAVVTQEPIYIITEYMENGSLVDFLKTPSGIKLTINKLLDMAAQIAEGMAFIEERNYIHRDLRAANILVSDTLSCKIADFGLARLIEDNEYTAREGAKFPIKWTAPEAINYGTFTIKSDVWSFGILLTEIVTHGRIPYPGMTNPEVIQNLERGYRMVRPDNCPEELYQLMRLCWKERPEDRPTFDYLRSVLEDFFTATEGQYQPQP
# Text: as §1
# [7] = target: nAChR(a4/b2) (Homo sapiens, UniProt P17787+P43681); assay: SAFETYscan Ion Channel nAChR(a4/b2) Opener; type: cell-based
# Chain of nAChR(a4/b2) (P43681 29-627 limits assumed): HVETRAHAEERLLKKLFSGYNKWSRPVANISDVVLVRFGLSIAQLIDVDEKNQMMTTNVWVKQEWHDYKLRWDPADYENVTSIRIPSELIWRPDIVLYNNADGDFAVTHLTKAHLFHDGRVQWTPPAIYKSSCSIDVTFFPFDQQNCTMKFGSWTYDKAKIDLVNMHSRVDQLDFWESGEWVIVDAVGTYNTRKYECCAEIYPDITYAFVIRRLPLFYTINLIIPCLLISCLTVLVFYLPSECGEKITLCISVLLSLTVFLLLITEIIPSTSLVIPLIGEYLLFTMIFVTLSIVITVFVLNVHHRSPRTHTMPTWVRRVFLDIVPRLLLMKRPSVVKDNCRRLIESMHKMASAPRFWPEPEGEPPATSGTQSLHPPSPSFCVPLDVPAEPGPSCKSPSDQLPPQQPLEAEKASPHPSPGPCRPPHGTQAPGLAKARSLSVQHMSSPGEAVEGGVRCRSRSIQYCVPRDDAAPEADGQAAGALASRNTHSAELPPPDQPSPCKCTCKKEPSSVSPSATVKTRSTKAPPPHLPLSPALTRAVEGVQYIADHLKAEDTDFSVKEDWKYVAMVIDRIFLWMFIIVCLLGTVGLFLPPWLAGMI
# Chain of nAChR(a4/b2) (P17787 26-502): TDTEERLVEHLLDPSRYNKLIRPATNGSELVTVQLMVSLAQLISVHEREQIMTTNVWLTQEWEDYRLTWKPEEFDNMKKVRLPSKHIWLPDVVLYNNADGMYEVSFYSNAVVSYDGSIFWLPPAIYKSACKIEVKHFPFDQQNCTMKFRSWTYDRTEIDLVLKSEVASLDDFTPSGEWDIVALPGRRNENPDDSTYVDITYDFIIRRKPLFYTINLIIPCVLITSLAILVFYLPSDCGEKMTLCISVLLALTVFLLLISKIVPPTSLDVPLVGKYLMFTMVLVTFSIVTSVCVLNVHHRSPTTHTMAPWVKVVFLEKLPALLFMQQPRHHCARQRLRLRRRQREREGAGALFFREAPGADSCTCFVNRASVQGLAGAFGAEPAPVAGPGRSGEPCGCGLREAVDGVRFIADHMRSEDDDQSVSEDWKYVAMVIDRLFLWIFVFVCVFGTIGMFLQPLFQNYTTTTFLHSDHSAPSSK
# Text: as §1
# [8] = target: T4, ADRA1A (Homo sapiens, UniProt P35348); assay: SAFETYscan Calcium Flux ADRA1A Agonist; type: cell-based
# T4 sequence (P35348 1-466): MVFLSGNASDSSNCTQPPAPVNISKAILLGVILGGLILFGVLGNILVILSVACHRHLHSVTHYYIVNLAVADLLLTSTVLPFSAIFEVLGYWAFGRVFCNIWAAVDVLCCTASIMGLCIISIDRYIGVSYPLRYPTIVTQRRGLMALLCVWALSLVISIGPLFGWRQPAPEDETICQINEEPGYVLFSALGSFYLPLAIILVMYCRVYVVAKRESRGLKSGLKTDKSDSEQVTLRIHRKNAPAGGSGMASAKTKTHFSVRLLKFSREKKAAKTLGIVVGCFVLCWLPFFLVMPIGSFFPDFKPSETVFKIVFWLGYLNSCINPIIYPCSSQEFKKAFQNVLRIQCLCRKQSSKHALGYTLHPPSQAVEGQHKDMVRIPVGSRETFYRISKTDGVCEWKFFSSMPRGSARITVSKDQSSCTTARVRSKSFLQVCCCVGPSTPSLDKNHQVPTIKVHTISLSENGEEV
# Text: as §1
# [9] = target: DRD2S (Homo sapiens, UniProt P14416); assay: SAFETYscan cAMP DRD2S Antagonist; type: cell-based
# Chain of DRD2S (P14416 1-414 isoform P14416-2): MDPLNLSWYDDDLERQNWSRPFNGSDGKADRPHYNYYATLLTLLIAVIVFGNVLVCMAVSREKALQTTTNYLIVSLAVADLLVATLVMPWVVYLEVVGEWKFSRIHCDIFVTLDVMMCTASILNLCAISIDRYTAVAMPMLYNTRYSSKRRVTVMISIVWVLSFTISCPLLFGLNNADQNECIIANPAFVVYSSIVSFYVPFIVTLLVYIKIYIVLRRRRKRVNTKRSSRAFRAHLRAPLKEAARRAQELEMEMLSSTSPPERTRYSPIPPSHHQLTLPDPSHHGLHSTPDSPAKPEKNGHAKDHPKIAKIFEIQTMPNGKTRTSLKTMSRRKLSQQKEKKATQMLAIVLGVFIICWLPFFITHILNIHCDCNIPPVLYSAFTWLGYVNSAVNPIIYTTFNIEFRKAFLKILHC
# Text: as §1
# [10] = target: NMDAR (1A/2B) (Homo sapiens, UniProt Q05586+Q13224); assay: SAFETYscan Ion Channel NMDAR (1A/2B) Opener; type: cell-based
# Chain of NMDAR (1A/2B) (Q13224 27-1484, other chains not shown): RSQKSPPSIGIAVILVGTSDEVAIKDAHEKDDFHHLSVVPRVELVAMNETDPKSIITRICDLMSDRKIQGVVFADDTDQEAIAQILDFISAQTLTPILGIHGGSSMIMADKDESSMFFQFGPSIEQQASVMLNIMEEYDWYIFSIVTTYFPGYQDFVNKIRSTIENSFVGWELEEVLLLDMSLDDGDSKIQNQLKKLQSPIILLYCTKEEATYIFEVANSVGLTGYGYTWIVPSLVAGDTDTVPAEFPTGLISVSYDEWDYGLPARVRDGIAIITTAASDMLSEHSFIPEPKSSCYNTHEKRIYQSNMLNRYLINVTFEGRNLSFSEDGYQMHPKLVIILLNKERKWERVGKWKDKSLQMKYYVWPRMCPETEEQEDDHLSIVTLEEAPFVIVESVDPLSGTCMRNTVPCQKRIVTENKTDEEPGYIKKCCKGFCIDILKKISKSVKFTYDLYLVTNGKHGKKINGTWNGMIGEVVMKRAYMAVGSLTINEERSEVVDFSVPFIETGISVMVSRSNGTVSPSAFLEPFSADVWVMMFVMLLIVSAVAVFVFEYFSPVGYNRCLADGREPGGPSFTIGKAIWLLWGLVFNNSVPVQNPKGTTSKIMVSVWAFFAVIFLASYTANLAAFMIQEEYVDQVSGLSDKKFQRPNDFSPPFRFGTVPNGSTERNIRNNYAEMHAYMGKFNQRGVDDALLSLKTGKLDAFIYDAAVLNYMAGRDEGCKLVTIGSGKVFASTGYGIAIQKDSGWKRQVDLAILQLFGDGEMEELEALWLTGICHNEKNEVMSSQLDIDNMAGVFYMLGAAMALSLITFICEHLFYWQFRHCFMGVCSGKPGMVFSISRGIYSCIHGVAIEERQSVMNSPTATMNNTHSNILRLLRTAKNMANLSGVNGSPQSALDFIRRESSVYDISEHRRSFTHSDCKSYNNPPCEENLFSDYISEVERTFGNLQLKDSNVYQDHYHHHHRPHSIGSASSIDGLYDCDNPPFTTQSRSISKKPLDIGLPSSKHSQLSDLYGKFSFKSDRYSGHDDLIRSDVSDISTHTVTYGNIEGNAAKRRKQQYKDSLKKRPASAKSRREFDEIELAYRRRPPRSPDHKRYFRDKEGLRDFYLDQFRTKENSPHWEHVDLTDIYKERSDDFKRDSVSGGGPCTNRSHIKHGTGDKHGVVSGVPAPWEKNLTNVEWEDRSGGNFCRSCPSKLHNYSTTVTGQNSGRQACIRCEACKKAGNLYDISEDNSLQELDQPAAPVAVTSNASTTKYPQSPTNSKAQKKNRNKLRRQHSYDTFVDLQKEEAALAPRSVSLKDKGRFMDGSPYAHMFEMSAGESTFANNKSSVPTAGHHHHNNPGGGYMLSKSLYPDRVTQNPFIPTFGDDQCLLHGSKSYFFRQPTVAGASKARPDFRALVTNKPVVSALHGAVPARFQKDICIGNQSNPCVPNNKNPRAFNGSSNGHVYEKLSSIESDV
# Text: as §1
# [11] = target: COX2 (Homo sapiens, UniProt P35354); assay: SAFETYscan Enzymatic COX2 Inhibitor; type: biochemical
# Text: as §1
# [12] = target: ADRB1 (Homo sapiens, UniProt P08588); assay: SAFETYscan cAMP ADRB1 Antagonist; type: cell-based
# Chain of ADRB1 (P08588 whole entry): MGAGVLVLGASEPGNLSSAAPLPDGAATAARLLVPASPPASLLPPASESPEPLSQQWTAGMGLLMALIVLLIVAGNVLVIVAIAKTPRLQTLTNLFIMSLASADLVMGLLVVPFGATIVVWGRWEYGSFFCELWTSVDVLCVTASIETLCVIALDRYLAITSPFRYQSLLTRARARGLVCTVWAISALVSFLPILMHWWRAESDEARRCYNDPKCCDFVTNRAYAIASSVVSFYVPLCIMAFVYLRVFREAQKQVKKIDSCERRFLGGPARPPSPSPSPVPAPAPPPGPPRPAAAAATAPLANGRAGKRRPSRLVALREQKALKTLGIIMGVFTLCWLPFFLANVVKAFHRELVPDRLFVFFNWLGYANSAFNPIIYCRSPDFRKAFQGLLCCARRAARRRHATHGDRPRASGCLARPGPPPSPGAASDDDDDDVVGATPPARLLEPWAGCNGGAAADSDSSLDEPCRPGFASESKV
# Text: Supplement jm3c00155_si_002.xlsx, sheet "SAFETYScan" | column: RC50 (uM); Hill; Max Response
# [13] = target: OPRK1 (Homo sapiens, UniProt P41145); assay: SAFETYscan cAMP OPRK1 Antagonist; type: cell-based
# Chain of OPRK1 (P41145 whole entry): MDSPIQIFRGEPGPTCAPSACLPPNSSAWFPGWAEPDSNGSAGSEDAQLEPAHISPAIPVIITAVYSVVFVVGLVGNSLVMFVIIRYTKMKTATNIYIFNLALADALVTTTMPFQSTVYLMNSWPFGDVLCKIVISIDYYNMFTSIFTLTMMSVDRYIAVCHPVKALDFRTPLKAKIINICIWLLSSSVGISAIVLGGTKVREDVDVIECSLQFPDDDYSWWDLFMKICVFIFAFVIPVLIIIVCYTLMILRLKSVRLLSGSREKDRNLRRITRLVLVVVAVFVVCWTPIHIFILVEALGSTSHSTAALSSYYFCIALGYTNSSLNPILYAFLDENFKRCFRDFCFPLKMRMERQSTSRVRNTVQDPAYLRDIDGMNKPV
# Text: as §1
# [14] = target: ADRB2 (Homo sapiens, UniProt P07550); assay: SAFETYscan cAMP ADRB2 Agonist; type: cell-based
# Text: as §1
# [15] = target: PDE4D2 (Homo sapiens, UniProt Q08499); assay: SAFETYscan Enzymatic PDE4D2 Inhibitor; type: biochemical
# Text: as §1
# Chain of CNR1 (P21554 whole entry): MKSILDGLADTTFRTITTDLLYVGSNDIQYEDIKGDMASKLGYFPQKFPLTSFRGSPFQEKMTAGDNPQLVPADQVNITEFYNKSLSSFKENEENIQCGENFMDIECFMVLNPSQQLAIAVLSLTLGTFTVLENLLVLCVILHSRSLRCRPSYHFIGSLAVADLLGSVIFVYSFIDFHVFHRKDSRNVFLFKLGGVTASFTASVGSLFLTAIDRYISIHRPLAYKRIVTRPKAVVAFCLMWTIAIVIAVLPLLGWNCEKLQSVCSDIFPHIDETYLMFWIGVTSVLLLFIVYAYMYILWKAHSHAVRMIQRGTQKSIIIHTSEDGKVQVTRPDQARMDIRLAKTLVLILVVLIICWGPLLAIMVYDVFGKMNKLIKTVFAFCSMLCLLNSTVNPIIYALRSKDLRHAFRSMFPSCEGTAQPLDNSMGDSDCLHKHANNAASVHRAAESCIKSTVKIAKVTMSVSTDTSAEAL
compound,measurement,setting,value
"Cn1c(=O)c2c(c3cc(Nc4ccnc(F)c4Cl)ccc31)N[C@@H](C1CC1)C(F)(F)CO2 [compound 17, (S)-10-((3-chloro-2-fluoropyridin-4-yl)amino)-2-cyclopropyl-3,3-difluoro-7-methyl-1,2,3,4-tetrahydro-[1,4]oxazepino[2,3-c]quinolin-6(7H)-one]",pIC50,[1],< 5.00
same,Emax,"[1]; CNR1, cAMP, Antagonist, read-out: Max Response",0%
same,pIC50,[2],< 5.00
same,Emax,"[2]; CHRM2, cAMP, Antagonist, read-out: Max Response",0%
same,Emax,[3]; read-out: Max Response,0%
same,pIC50,[3]; read-out: RC50 (IC50),< 5.00
same,pIC50,[4],< 5.00
same,Emax,"[4]; NAV1.5, Ion Channel, Blocker, read-out: Max Response",2.06%
same,pIC50,[5],< 5.00
same,Emax,"[5]; HTR1A, cAMP, Antagonist, read-out: Max Response",0%
same,Emax,[6]; read-out: Max Response,0.08%
same,pIC50,[6]; read-out: RC50 (IC50),< 5.00
same,pEC50,[7],< 5.00
same,Emax,"[7]; nAChR(a4/b2), Ion Channel, Opener, read-out: Max Response",3.37%
same,pEC50,[8],< 5.00
same,Emax,"[8]; ADRA1A, Calcium Flux, Agonist, read-out: Max Response",0%
same,pIC50,[9],< 5.00
same,Emax,"[9]; DRD2S, cAMP, Antagonist, read-out: Max Response",0%
same,pEC50,[10],< 5.00
same,Emax,"[10]; NMDAR (1A/2B), Ion Channel, Opener, read-out: Max Response",0.2%
same,Emax,[11]; read-out: Max Response,0%
same,pIC50,[11]; read-out: RC50 (IC50),< 5.00
same,Hill,[12],1.19
same,Emax,[12]; read-out: Max Response,88.7%
same,pIC50,[12]; read-out: RC50 (IC50),5.80
same,pIC50,[13],< 5.00
same,Emax,"[13]; OPRK1, cAMP, Antagonist, read-out: Max Response",0.95%
same,Emax,[14]; read-out: Max Response,0%
same,pEC50,[14]; read-out: RC50 (EC50),< 5.00
same,Emax,[15]; read-out: Max Response,15%
same,pIC50,[15]; read-out: RC50 (IC50),< 5.00
